From patent publication US20170273307A1, “SILANE-BASED ANTIMICROBIAL COATINGS AND METHODS OF MAKING AND USING THE SAME” (Trent University, priority 2016, published 2017)

Test: Hydrolysis study of the silane by 1H NMR in D2O
Type: physicochemical
Procedure: Hydrolysis of the antimicrobial silanes to activate their surface bonding, an essential step in the coating process, were examined by ^1H NMR in D2O. In a typical experiment, approximately 10 mg of the trimethoxy-hydantoin containing silane was added to D2O and the first was acquired within 2 minutes of the addition. The evolution of methanol with time was measured by acquisition of subsequent incremental spectra on the same sample. Due to the limited solubility of these compounds in water, the amount of methanol hydrolysis product detected, in relation to an internal standard (residual H2O in D2O) was used.
Hydrolysis of the modified alkyloxysilanes is important for their reactivity and adhesion to surfaces. Knowing the rate of hydrolysis allows control over the mixing time and catalyst/acid content required before a coating will optimally bind to a substrate. To better understand the mechanisms of hydrolysis, a simple method of placing the silane in a solvent, such as D2O (deuterated water), and look for a characteristic methanol peak in NMR analysis, which will occur when the methanol is cleaved off by the hydrolysis from the D2O. […] After 2 minutes (the fastest the sample could be analyzed on NMR after mixing), a sharp, distinct methanol peak appears at 3.34 ppm (FIG. 4).

solubility in D2O (approximately 10 mg in D2O): not completely soluble
integration value of methanol peak (3.34 ppm) compared with D2O set as 1 (in D2O, after 2 minutes): 0.24
time to plateau of methanol peak integration (in D2O, spectra recorded every 2 minutes): 10 min
time to nearly complete hydrolysis (in D2O, uncatalysed, methanol release by 1H NMR): less than 2 minutes
SMILES: CO[Si](CCCn1cc(CN2C(=O)NC(C)(C)C2=O)nn1)(OC)OC [the silane]
